How the values were obtained:
Assay in all cases: relative viability (nuclei count vs DMSO), 5 days (fraction); higher = more cells survive
RU-SKI 43 = compound: CC[C@@H](C)CNCC(=O)N1CCC2=C([C@@H]1COC3=CC=CC(=C3)C)C=CS2 [RU-SKI 43]
Summary of the method: (§1)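 Vehicle-anchored 1536-well plates of lung cancer cell lines, held overnight at 37 °C, were pinned with five library-drug doses (not always all listed) spaced by √10. No medium change followed over the next 5 days, after which the cells were fixed, permeabilised and Hoechst-stained together and imaged at 4×. Nuclei were counted with MetaXpress, and viability is treated-well nuclei over vehicle-well nuclei, taken as a median across plates. Plates passed with control CV below 25% and at least one doubling.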

MK-8033 = compound: Cn1cc(-c2cnc3ccc4ccc(CS(=O)(=O)NCc5ccccn5)cc4c(=O)c3c2)cn1 [MK-8033]
Summary of the method: as §1

Irinotecan = compound: CCc1c2c(nc3ccc(OC(=O)N4CCC(N5CCCCC5)CC4)cc13)-c1cc3c(c(=O)n1C2)COC(=O)[C@]3(O)CC [Irinotecan]
Summary of the method: as §1

RU-SKI 43 + Alpelisib = compound: CC[C@@H](C)CNCC(=O)N1CCC2=C([C@@H]1COC3=CC=CC(=C3)C)C=CS2 [RU-SKI 43] + Cc1nc(NC(=O)N2CCC[C@H]2C(N)=O)sc1-c1ccnc(C(C)(C)C(F)(F)F)c1 [Alpelisib] (partner 2 µM)
Summary of the method: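 After 5 days of treatment, lung cancer cells in 1536-well plates were fixed and stained in a single step (final 0.05% Triton X-100, 1% formaldehyde, 1 ug/ml Hoechst) and their nuclei counted on 4× images. Treatment had been applied by pin tool the day after seeding as one drug alone or as a fixed anchor-drug dose with five library-drug doses (not always all listed) in √10 steps. Relative viability is the nuclei count of treated wells divided by that of vehicle wells, and values are medians of duplicate plates.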

| Cell Line | relative viability (RU-SKI 43; 0.1 µM) | relative viability (RU-SKI 43; 0.3162 µM) | relative viability (RU-SKI 43; 1 µM) | relative viability (RU-SKI 43; 3.162 µM) | relative viability (RU-SKI 43; 10 µM) | relative viability (MK-8033; 0.02 µM) | relative viability (MK-8033; 0.06325 µM) | relative viability (MK-8033; 0.2 µM) | relative viability (MK-8033; 0.6325 µM) | relative viability (MK-8033; 2 µM) | relative viability (Irinotecan; 0.6325 µM) | relative viability (Irinotecan; 2 µM) | relative viability (Irinotecan; 6.325 µM) | relative viability (Irinotecan; 20 µM) | relative viability (RU-SKI 43 + Alpelisib; first compound 0.1 µM) | relative viability (RU-SKI 43 + Alpelisib; first compound 0.3162 µM) | relative viability (RU-SKI 43 + Alpelisib; first compound 1 µM) | relative viability (RU-SKI 43 + Alpelisib; first compound 3.162 µM) | relative viability (RU-SKI 43 + Alpelisib; first compound 10 µM) |
| --- | --- | --- | --- | --- | --- | --- | --- | --- | --- | --- | --- | --- | --- | --- | --- | --- | --- | --- | --- |
| PC-14 | 1.01 | 1.15 | 1.2 | 1.01 | 0.953 | 1.01 | 0.83 | 0.888 | 0.95 | 0.938 | 0.72 | 0.876 | 0.29 | 0.185 | 0.9 | 0.91 | 1.04 | 0.938 | 0.956 |
| NCI-H358 | 0.94 | 1.19 | 0.922 | 0.97 | 0.898 | 0.961 | 0.751 | 0.917 | 0.958 | 0.806 | 0.744 | 0.66 | 0.323 | 0.169 | 0.795 | 0.894 | 0.781 | 0.634 | 0.858 |
| LK-2 | 1.09 | 1.13 | 1.31 | 1.22 | 1.06 | 0.992 | 0.885 | 0.92 | 1.01 | 1.09 | 1.04 | 0.956 | 0.486 | 0.282 | 1.27 | 1.41 | 1.18 | – | 1.24 |
| HCC-827 | 1.06 | 1.01 | 1.1 | 1.05 | 1.06 | 1.01 | – | 1.01 | 1.01 | 1.05 | 0.938 | 0.779 | 0.263 | 0.296 | 0.92 | 1.06 | 1.03 | 1.01 | 0.965 |
| LCLC-97TM1 | 1.13 | 0.972 | 1.05 | 0.973 | 0.838 | 1.05 | 0.927 | 0.795 | 0.999 | 0.975 | 0.39 | 0.454 | 0.173 | 0.167 | 0.215 | – | 0.206 | 0.241 | 0.234 |
| EMC-BAC-2 | 1.04 | 0.983 | 1.28 | 0.97 | 0.971 | 1.13 | 0.904 | 0.916 | 1.03 | 0.947 | 0.562 | 0.616 | 0.328 | 0.231 | 0.769 | 0.752 | 0.762 | 0.733 | 0.893 |
| NCI-H647 | 1.04 | 0.987 | 1.13 | 1.07 | 0.996 | 0.919 | 0.943 | 0.89 | 0.935 | 0.874 | 0.866 | 0.815 | 0.191 | 0.142 | 1.2 | 1.56 | 1.51 | 1.11 | 1.1 |
| NCI-H1944 | 1.01 | 0.98 | 1.08 | 0.968 | 0.932 | 0.927 | 0.768 | 0.982 | 0.968 | 1.03 | 0.67 | 0.559 | 0.244 | 0.194 | 0.888 | 0.815 | 0.843 | 0.872 | 0.786 |
